Laboratory results taken from the kinase profiling compilation of Christmann-Franck et al. (2016).
Where “and” joins values, the source holds several entries; their conditions need not be identical. Identical values can stand only once.

Key:
Assay in all cases: radiometric filter-binding kinase assay, Kinase HotSpot
Settings in all cases: compound 0.5 µM; ATP 10 µM
PAK2 (human) = PAK2 (human) (UniProt Q13177)
SRPK1 (human) = SRPK1 (human) (UniProt Q96SB4)
TAOK1 (human) = TAOK1 (human) (UniProt Q7L7X3)
MAPKAPK3 (human) = MAPKAPK3 (human) (UniProt Q16644)
TNK2 (human) = TNK2 (human) (UniProt Q07912)
CDK4 CCND1 (human) = CDK4 CCND1 (human) (UniProt P24385+P11802)
DCLK2 (human) = DCLK2 (human) (UniProt Q8N568)
CAMK4 (human) = CAMK4 (human) (UniProt Q16566)
DMPK (human) = DMPK (human) (UniProt Q09013)
FER (human) = FER (human) (UniProt P16591)
WEE1 (human) = WEE1 (human) (UniProt P30291)
WEE1 (human), sequence (P30291 whole entry, looked up): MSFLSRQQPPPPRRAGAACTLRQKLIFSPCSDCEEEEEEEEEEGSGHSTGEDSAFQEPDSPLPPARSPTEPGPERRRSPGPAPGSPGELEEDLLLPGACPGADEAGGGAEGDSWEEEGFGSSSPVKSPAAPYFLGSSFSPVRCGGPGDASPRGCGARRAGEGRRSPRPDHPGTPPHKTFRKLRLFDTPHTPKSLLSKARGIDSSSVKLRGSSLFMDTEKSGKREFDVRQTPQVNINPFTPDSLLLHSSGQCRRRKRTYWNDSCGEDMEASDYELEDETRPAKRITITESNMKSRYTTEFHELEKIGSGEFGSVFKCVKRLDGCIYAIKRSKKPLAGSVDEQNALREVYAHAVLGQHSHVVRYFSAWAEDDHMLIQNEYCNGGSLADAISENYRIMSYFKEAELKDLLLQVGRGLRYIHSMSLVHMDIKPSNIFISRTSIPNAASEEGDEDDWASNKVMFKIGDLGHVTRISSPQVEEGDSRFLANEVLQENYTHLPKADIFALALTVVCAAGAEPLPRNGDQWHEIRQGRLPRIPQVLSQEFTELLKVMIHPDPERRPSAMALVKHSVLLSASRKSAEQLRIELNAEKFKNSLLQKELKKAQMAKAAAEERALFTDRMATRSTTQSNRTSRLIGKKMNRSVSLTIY

CSNK1G1 (human) = CSNK1G1 (human) (UniProt Q9HCP0)
TBK1 (human) = TBK1 (human) (UniProt Q9UHD2)
RPS6KA1 KD1 KD2 (human) = RPS6KA1 KD1 KD2 (human) (UniProt Q15418)
RPS6KA1 KD1 KD2 (human), sequence (Q15418 whole entry, looked up): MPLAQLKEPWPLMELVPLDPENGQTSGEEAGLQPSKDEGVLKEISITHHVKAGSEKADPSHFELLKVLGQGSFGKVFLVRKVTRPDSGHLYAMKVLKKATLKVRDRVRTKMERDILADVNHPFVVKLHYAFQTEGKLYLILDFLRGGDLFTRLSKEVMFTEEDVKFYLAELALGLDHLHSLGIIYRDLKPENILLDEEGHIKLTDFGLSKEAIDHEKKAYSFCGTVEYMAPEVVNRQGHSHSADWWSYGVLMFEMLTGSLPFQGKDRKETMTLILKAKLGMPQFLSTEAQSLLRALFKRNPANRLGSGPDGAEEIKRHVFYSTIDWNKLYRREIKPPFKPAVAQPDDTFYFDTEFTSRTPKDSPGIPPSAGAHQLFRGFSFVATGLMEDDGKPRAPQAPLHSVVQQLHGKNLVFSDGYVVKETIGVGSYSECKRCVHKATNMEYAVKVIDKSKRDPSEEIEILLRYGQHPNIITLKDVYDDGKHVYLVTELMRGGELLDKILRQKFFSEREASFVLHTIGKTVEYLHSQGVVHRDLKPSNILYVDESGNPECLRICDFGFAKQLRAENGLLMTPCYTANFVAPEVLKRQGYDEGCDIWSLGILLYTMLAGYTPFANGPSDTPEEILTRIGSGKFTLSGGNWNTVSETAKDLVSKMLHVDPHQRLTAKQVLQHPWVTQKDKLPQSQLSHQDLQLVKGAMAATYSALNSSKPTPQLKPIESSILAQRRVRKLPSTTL

PASK (human) = PASK (human) (UniProt Q96RG2)
PASK (human), sequence (Q96RG2 whole entry, looked up): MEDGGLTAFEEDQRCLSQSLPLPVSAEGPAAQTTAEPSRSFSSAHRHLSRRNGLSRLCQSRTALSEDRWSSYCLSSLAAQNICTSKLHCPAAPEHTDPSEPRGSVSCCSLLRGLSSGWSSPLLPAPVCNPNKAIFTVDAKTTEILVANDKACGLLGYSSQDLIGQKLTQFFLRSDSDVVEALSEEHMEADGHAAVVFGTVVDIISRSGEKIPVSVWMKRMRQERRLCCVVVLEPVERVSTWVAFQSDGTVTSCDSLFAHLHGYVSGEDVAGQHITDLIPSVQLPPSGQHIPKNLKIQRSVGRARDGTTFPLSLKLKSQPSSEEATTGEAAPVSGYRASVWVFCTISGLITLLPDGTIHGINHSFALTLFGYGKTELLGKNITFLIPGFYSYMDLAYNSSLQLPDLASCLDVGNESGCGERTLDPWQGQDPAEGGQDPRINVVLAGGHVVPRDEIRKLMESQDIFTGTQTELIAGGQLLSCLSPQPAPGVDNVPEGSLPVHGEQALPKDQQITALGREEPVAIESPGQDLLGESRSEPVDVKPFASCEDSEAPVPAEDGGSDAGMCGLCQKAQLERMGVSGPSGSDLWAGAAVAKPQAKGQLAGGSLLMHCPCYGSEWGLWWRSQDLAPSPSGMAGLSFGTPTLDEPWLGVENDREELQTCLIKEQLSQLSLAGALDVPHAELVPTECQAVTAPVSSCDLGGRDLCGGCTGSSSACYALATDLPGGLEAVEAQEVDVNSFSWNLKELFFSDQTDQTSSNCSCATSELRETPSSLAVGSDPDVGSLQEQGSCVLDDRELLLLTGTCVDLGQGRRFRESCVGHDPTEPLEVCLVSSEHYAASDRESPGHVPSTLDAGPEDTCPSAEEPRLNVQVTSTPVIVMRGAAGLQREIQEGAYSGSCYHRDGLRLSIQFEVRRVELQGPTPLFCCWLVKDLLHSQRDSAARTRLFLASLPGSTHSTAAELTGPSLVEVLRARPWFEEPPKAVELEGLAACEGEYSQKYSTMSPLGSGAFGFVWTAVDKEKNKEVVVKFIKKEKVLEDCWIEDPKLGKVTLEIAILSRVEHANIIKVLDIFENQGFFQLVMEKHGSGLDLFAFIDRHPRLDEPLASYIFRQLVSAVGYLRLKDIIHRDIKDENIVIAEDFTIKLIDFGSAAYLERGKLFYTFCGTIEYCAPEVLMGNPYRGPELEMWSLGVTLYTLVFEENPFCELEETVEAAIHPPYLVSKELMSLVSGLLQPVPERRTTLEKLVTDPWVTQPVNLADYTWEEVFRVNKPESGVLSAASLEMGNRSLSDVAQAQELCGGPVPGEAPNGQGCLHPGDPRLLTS

NEK9 (human) = NEK9 (human) (UniProt Q8TD19)
ZAP70 (human) = ZAP70 (human) (UniProt P43403)
ZAP70 (human), sequence (P43403 whole entry, looked up): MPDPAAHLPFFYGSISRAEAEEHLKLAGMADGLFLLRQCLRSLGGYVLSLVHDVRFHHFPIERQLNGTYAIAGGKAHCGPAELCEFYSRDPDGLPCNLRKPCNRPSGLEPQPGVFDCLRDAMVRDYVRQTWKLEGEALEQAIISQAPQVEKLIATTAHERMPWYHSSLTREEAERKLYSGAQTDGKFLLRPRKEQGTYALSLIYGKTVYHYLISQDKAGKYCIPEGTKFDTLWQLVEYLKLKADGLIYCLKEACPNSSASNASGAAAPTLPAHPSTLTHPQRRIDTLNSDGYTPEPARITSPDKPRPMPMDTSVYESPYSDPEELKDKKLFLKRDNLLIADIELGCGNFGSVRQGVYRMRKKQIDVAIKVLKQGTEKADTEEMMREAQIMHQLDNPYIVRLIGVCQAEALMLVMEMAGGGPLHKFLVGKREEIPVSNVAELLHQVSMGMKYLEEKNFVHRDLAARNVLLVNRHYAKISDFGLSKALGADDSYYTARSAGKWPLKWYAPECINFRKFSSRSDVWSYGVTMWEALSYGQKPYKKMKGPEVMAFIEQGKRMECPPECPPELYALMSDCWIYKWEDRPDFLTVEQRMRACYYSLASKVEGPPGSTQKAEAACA

CDK1 CCNA2 (human) = CDK1 CCNA2 (human) (UniProt P06493+P20248)
LYN (human) = LYN (human) (UniProt P07948)
AKT1 (human) = AKT1 (human) (UniProt P31749)
PIM1 (human) = PIM1 (human) (UniProt P11309)
MAPK14 (human) = MAPK14 (human) (UniProt Q16539)
DAPK1 (human) = DAPK1 (human) (UniProt P53355)
PAK1 (human) = PAK1 (human) (UniProt Q13153)
LCK (human) = LCK (human) (UniProt P06239)
LCK (human), sequence (P06239 whole entry, looked up): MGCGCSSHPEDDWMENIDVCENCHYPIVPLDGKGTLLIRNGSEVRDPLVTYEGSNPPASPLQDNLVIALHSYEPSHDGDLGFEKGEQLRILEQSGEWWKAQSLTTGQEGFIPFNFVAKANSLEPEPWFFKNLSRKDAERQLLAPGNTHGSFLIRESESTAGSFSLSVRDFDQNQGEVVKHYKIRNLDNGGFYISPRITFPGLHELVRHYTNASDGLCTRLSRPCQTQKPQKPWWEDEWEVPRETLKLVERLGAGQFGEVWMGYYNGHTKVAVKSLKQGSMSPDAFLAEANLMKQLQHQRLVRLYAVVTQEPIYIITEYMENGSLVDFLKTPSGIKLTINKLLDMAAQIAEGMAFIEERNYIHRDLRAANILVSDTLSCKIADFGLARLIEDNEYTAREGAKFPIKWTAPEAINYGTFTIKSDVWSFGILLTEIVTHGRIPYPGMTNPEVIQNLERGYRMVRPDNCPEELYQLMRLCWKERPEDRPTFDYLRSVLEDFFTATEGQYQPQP

PDPK1 (human) = PDPK1 (human) (UniProt O15530)
PDGFRA (human) = PDGFRA (human) (UniProt P16234)
RPS6KB2 (human) = RPS6KB2 (human) (UniProt Q9UBS0)
MAPK9 (human) = MAPK9 (human) (UniProt P45984)
MAPK9 (human), sequence (P45984 whole entry, looked up): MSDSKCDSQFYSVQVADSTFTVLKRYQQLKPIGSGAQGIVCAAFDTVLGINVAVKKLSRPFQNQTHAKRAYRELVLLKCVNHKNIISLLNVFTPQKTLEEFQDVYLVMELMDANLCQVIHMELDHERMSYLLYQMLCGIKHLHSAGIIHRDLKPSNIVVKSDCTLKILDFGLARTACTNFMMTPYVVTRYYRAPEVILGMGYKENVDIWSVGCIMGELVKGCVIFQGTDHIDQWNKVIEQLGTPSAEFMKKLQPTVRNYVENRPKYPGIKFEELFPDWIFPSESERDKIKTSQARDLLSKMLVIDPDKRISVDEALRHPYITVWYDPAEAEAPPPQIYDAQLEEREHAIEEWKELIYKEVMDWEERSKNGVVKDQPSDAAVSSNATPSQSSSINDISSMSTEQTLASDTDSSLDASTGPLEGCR

[1] = target: JAK1 JH1 catalytic (human) (UniProt P23458)
BLK (human) = BLK (human) (UniProt P51451)
IRAK4 (human) = IRAK4 (human) (UniProt Q9NWZ3)
FLT1 (human) = FLT1 (human) (UniProt P17948)
HCK (human) = HCK (human) (UniProt P08631)
PRKD3 (human) = PRKD3 (human) (UniProt O94806)
JAK2 JH1 JH2 (human) = JAK2 JH1 JH2 (human) (UniProt O60674)
GRK6 (human) = GRK6 (human) (UniProt P43250)
PLK3 (human) = PLK3 (human) (UniProt Q9H4B4)
PRKCH (human) = PRKCH (human) (UniProt P24723)
ROS1 (human) = ROS1 (human) (UniProt P08922)
TLK2 (human) = TLK2 (human) (UniProt Q86UE8)
CAMK2B (human) = CAMK2B (human) (UniProt Q13554)

SRPK1 (human), sequence (Q96SB4 whole entry, looked up): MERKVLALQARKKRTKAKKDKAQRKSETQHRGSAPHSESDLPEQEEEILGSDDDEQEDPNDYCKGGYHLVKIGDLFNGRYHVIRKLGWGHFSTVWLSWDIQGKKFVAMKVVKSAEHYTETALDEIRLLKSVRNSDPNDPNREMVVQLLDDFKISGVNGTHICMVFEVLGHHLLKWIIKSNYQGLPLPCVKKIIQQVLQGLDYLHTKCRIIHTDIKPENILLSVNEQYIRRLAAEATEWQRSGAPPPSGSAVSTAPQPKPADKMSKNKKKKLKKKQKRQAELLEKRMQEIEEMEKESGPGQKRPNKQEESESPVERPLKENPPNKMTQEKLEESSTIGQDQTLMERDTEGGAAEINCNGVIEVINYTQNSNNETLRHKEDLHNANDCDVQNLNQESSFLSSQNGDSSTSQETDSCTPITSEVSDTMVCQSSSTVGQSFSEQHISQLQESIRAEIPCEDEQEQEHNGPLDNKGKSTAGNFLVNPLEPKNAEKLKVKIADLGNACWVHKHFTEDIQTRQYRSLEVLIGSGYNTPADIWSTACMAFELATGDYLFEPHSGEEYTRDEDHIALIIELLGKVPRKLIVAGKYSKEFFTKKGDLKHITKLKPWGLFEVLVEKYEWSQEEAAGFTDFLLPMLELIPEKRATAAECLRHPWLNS

Structure (SMILES): CCC(=O)Nc1ccc2ncnc(Nc3cccc(Br)c3)c2c1
- residual activity (PAK2 (human)): 101%
- residual activity (SRPK1 (human)): 97%
- residual activity (TAOK1 (human)): 79.1%
- residual activity (MAPKAPK3 (human)): 90.2%
- residual activity (TNK2 (human)): 93.5%
- residual activity (CDK4 CCND1 (human)): 101%
- residual activity (DCLK2 (human)): 89%
- residual activity (CAMK4 (human)): 103%
- residual activity (DMPK (human)): 92%
- residual activity (FER (human)): 95.6%
- residual activity (WEE1 (human)): 80.2%
- residual activity (CSNK1G1 (human)): 98.6%
- residual activity (TBK1 (human)): 95.6%
- residual activity (RPS6KA1 KD1 KD2 (human)): 88.7%
- residual activity (PASK (human)): 88.7%
- residual activity (NEK9 (human)): 105%
- residual activity (ZAP70 (human)): 113%
- residual activity (CDK1 CCNA2 (human)): 87.9%
- residual activity (LYN (human)): 82.6% and 87.7%
- residual activity (AKT1 (human)): 95.8%
- residual activity (PIM1 (human)): 85.3%
- residual activity (MAPK14 (human)): 82.8%
- residual activity (DAPK1 (human)): 99.4%
- residual activity (PAK1 (human)): 96.3%
- residual activity (LCK (human)): 93.1%
- residual activity (PDPK1 (human)): 107%
- residual activity (PDGFRA (human)): 107%
- residual activity (RPS6KB2 (human)): 94.9%
- residual activity (MAPK9 (human)): 78.3%
- residual activity [1]: 96.6%
- residual activity (BLK (human)): 90.7%
- residual activity (IRAK4 (human)): 79.8%
- residual activity (FLT1 (human)): 86.9%
- residual activity (HCK (human)): 93%
- residual activity (PRKD3 (human)): 85.9%
- residual activity (JAK2 JH1 JH2 (human)): 103%
- residual activity (GRK6 (human)): 97.6%
- residual activity (PLK3 (human)): 93.2%
- residual activity (PRKCH (human)): 89.3%
- residual activity (ROS1 (human)): 97.5%
- residual activity (TLK2 (human)): 104%
- residual activity (CAMK2B (human)): 105%

Structure (SMILES): Cc1[nH]c(/C=C2\C(=O)Nc3ccc(S(=O)(=O)N(C)c4cccc(Cl)c4)cc32)c(C)c1C(=O)N1CCN(C)CC1
- residual activity (PAK2 (human)): 96.2%
- residual activity (SRPK1 (human)): 77.3%
- residual activity (TAOK1 (human)): 41.9%
- residual activity (MAPKAPK3 (human)): 96.9%
- residual activity (TNK2 (human)): 65.4%
- residual activity (CDK4 CCND1 (human)): 88.5%
- residual activity (DCLK2 (human)): 90.4%
- residual activity (CAMK4 (human)): 96.2%
- residual activity (DMPK (human)): 113%
- residual activity (FER (human)): 81%
- residual activity (WEE1 (human)): 81.8%
- residual activity (CSNK1G1 (human)): 104%
- residual activity (TBK1 (human)): 60.4%
- residual activity (RPS6KA1 KD1 KD2 (human)): 54.4%
- residual activity (PASK (human)): 106%
- residual activity (NEK9 (human)): 92.5%
- residual activity (ZAP70 (human)): 94.4%
- residual activity (CDK1 CCNA2 (human)): 88.7%
- residual activity (LYN (human)): 39.1% and 53.3%
- residual activity (AKT1 (human)): 98.8%
- residual activity (PIM1 (human)): 103%
- residual activity (MAPK14 (human)): 86.2%
- residual activity (DAPK1 (human)): 106%
- residual activity (PAK1 (human)): 87.7%
- residual activity (LCK (human)): 29.3%
- residual activity (PDPK1 (human)): 114%
- residual activity (PDGFRA (human)): 72.8%
- residual activity (RPS6KB2 (human)): 98.4%
- residual activity (MAPK9 (human)): 78%
- residual activity [1]: 68%
- residual activity (BLK (human)): 51.7%
- residual activity (IRAK4 (human)): 65.5%
- residual activity (FLT1 (human)): 74.7%
- residual activity (HCK (human)): 63.5%
- residual activity (PRKD3 (human)): 42.7%
- residual activity (JAK2 JH1 JH2 (human)): 40.6%
- residual activity (GRK6 (human)): 89.7%
- residual activity (PLK3 (human)): 95%
- residual activity (PRKCH (human)): 88.7%
- residual activity (ROS1 (human)): 69.6%
- residual activity (TLK2 (human)): 95.8%
- residual activity (CAMK2B (human)): 89.8%

Structure (SMILES): Oc1cccc(-c2nc(N3CCOCC3)c3oc4ncccc4c3n2)c1
- residual activity (PAK2 (human)): 97.5%
- residual activity (SRPK1 (human)): 105%
- residual activity (TAOK1 (human)): 91.6%
- residual activity (MAPKAPK3 (human)): 93.9%
- residual activity (TNK2 (human)): 89.6%
- residual activity (CDK4 CCND1 (human)): 102%
- residual activity (DCLK2 (human)): 102%
- residual activity (CAMK4 (human)): 103%
- residual activity (DMPK (human)): 99.5%
- residual activity (FER (human)): 97.8%
- residual activity (WEE1 (human)): 81.6%
- residual activity (CSNK1G1 (human)): 89.4%
- residual activity (TBK1 (human)): 93%
- residual activity (RPS6KA1 KD1 KD2 (human)): 79.5%
- residual activity (PASK (human)): 83.8%
- residual activity (NEK9 (human)): 99.3%
- residual activity (ZAP70 (human)): 91.4%
- residual activity (CDK1 CCNA2 (human)): 84.4%
- residual activity (LYN (human)): 102% and 98.3%
- residual activity (AKT1 (human)): 95.3%
- residual activity (PIM1 (human)): 91.2%
- residual activity (DAPK1 (human)): 78%
- residual activity (PAK1 (human)): 97.6%
- residual activity (LCK (human)): 98%
- residual activity (PDPK1 (human)): 103%
- residual activity (PDGFRA (human)): 99.4%
- residual activity (RPS6KB2 (human)): 95.8%
- residual activity (MAPK9 (human)): 89.4%
- residual activity [1]: 104%
- residual activity (BLK (human)): 101%
- residual activity (IRAK4 (human)): 104%
- residual activity (FLT1 (human)): 83.6%
- residual activity (HCK (human)): 91.9%
- residual activity (PRKD3 (human)): 92.9%
- residual activity (JAK2 JH1 JH2 (human)): 92.6%
- residual activity (GRK6 (human)): 98.2%
- residual activity (PLK3 (human)): 94.6%
- residual activity (PRKCH (human)): 89.8%
- residual activity (ROS1 (human)): 93.1%
- residual activity (TLK2 (human)): 102%
- residual activity (CAMK2B (human)): 98.2%
